Results from PMC11267380, “USP25 Elevates SHLD2‐Mediated DNA Double‐Strand Break Repair and Regulates Chemoresponse in Cancer” (Advanced Science, 2024).
One block for each molecule: values may come before it.

Experiments:
NHEJ = NHEJ reporter assay, cells treated with AZ1; assay type: cell-based; settings: compared with USP25 depletion (decreased NHEJ); Figure S1h
HR = HR reporter assay, cells treated with AZ1; assay type: cell-based; settings: compared with USP25 depletion (increased HR); Figure S1i
RKO cells = assay: CCK8 survival assay, control, USP25 knockdown and SHLD2-depleted RKO cells; assay type: cell-based; settings: 5-Fu (0, 0.1, 0.5, 1, 3 µM) or cisplatin (0, 0.1, 0.5, 1, 2, 5 µM)
Protocol: For long‐term proliferation, cells were seeded in triplicate in each well of 96‐well plates at a density of 1000 cells per well. After 24 h of culture, the cells were treated with the indicated doses of regents or peptides and incubated at 37 °C for 72 h. Subsequently, the medium was changed to a fresh medium containing cell counting kit‐8 solution (Dojindo, CK04), and the cells were placed in the incubator for an additional 1–2 h. The absorbance was measured at 450 nm using the SpectraMax M5 reader (Molecular Devices).
(§1) a) HEK293T cells stably expressing control or USP25 shRNA were untreated and treaded with etopside at the indicated time point. Cells were lysed and lysates was performed with the indicated antibodies. b-c) Representative foci images and quantification of RPA32 (b) and RAD51 (c) were obtained in U2OS cells stably expressing control or USP25 shRNA with or without IR treatment (2Gy). n>80 in each group. d) USP25 was knocked down in ER-AsiSI U2OS cells by shRNA, and cell lysates were analyzed using the indicated antibodies. e) Schematic representation of Taqman qPCR primer design for measurement of DSB% at AsiSI sites located on chromosome1(Chr.1). The primer pairs of DNA resection are across BamHI restriction sites are marked by red arrows. ER-AsiSI U2OS cells stably expressing control and USP25 shRNA were treated with 300 nM 4- hydroxytamoxifen (4-OHT) for 4 h or mock treated and genomic DNA was then extracted and digested with BamHI overnight. The percentages of ssDNA at various distances (364nt, 1754nt and 3564nt) were measured by qPCR. f-h) Control and USP25 knockdown RKO cells transfected short interfering RNAs (siRNA) against SHLD2 were subjected to survival assays for CCK8 assay in response to IR (0, 1,1.5,2,2.5,3Gy), 5-Fu (0, 0.1,0.5,1,3µM) or cisplatin(0, 0.1,0.5,1,2,5µM). Statistical analysis was performed using two-way ANOVA followed by a Turkey’s multiple comparison test (b,c,e,f,g,h) .

RKO and SW620 cells = assay: CCK8 survival assay, USP25 knockdown USP25-high colon cancer cells; assay type: cell-based; settings: RKO: cisplatin (0, 0.5, 1, 3 µM), 5-Fu (0, 0.1, 0.5, 1, 3 µM), SW620: 5-Fu (0, 0.1, 0.5, 1, 3 µM), 72 h
Protocol: For long-term proliferation, cells were seeded in triplicate in each well of 96-well plates at a density of 1000 cells per well. After 24 h of culture, the cells were treated with the indicated doses of regents or peptides and incubated at 37 °C for 72 h. Subsequently, the medium was changed to a fresh medium containing cell counting kit-8 solution (Dojindo, CK04), and the cells were placed in the incubator for an additional 1-2 h. […] a) The mRNA expression levels of TRIM25, HECTD3, NEDD4L and WWP2 in human normal colon tissue samples (n=41) and colorectal adenocarcinoma tissue samples (n=286 COAD patients) from the Ualcan database were analyzed. b) The protein expression levels of USP25 were measured in HEK293T cells that stably expressed TRIM25 shRNA. c) NHEJ repair capacity of control or TRIM25 knockdown cells were subjected using a reporter assay. d-g) Immunoblot of USP25 in the RKO cells stably expressing control and USP25 shRNA. […] Statistical analysis was performed using t-test (a) or one-way ANOVA followed by a Turkey's multiple comparison test (c) or two-way ANOVA followed by a Turkey's multiple comparison test ([…]) .

[1] = system: RPA32 phosphorylation of Ser4/Ser8 in HEK293T cells; assay: RPA32 phosphorylation immunoblot after etoposide, USP25-depleted cells; assay type: cell-based; settings: HEK293T stably expressing control or USP25 shRNA, Figure S2a
Protocol: as §1, with “Statistical analysis was performed using two-way ANOVA followed by a Turkey’s multiple comparison test (b,c,e,f,g,h) .” left out

USP25 = target: T1, USP25 (Homo sapiens, UniProt Q9UHP3); assay: Surface Plasmon Resonance (SPR) analysis of peptide binding; settings: result in words; for binding affinity for USP25: Figure 7a, Figure S7a-c
T1 sequence (Q9UHP3 1-1055): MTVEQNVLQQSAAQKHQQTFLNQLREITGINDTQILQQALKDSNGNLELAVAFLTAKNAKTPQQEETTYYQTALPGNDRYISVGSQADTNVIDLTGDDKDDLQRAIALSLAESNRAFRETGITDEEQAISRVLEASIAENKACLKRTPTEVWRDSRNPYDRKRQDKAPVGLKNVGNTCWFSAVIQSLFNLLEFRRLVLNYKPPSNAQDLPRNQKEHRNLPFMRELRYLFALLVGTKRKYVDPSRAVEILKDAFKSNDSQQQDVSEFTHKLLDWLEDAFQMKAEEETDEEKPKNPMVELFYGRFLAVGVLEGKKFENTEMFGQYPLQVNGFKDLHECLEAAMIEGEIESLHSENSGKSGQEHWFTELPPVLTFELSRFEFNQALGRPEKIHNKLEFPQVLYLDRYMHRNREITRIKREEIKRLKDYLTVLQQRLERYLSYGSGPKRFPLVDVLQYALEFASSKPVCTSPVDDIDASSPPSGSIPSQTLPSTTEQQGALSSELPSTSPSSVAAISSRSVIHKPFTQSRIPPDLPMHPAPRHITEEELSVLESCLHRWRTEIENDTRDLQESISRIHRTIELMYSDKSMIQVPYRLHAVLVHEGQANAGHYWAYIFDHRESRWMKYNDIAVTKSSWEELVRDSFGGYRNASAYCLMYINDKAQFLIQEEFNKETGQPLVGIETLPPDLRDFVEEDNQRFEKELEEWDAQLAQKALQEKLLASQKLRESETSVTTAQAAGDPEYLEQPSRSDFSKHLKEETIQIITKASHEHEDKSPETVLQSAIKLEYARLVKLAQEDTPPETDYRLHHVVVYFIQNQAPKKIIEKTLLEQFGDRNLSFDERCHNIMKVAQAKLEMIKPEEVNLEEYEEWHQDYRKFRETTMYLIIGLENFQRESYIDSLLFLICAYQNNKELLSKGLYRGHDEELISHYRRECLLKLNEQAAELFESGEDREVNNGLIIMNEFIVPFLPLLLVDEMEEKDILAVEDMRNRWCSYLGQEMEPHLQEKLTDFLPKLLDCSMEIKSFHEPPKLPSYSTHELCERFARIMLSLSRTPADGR
Protocol: Figure 7 Disturbing the USP25 and SHLD2 interaction counteracts colon cancer progression. a) The kinetic interaction of SH‐4 and USP25 was assessed using surface plasmon resonance (SPR) analyses. b) Co‐immunoprecipitation assays (Co‐IP) were performed to detect the interaction between USP25 and SHLD2 in HEK293T cells treated with indicated peptides. c) NHEJ repair capacity of HEK293T cells treated with indicated peptides was subjected using a reporter assay. d) Representative micrographs of GFP‐SHLD2 foci and e) quantification were shown following irradiation and indicated peptide treatment. Cells were stained with anti‐GFP antibodies. f) The highest‐scoring Dock model of the SH‐4 and USP25 complex is shown. Left: the surface of SH‐4 (green) and USP25 complex. Right: the 3D structure of SH‐4 (green) and USP25 complex. g) The effect of indicated peptides(20 µM) in combination with 5‐Fu (0, 0.1, 0.5, 1, 3 µM) on the chemosensitivity of SW620 cells was determined. h‐l) Xenograft tumor formation by SW620 cells in mice that were untreated or treated with PSH‐4 and 5‐Fu or each treatment alone was analyzed. A h) schematic model, i) representative tumor images, j) tumor volume over time, k) tumor weight, and l) HE or Ki67 staining assay were presented (n = 5 animals). m) A schematic model for generating patient‐derived tumor xenografts of colorectal adenocarcinoma (COAD) was provided. n) Western blots showing USP25 levels in COAD patient tumors (patients 1–3) were presented. o) Representative immunohistochemistry (IHC) micrographs showing USP25 expression in COAD patient‐derived tumors were provided. p–s) The PDX xenograft in mice that were untreated or treated with PSH‐4([…] ) and 5‐Fu ([…] ) or each treatment alone were analyzed. Representative p) tumor images, q) tumor volume over time, r) tumor weight, and s) HE or Ki67 staining assay were presented (n = 6 animals). Statistical analysis was performed using one‐way ANOVA followed by a Turkey's multiple comparison test (c,e,k,r) or two‐way ANOVA followed by a Turkey's multiple comparison test (g,j,q). TEXT PRINTED IN THE PICTURE: (a) SH-4: KD (M) 2.082*10^-5; kd (1/s) 0.00484 DOUBTS OF THE COPYIST ABOUT THIS PICTURE: SH-4, KD (M): the digits 2.082 and the exponent -5 are in small print, the 8 could be a 6 or a 3 / SH-4, kd (1/s): 0.00484 is in small print, the 8 could be a 6 or a 3
The amino acid (aa) sequences of peptides covering the SHLD2-binding region from USP25 are shown. The kinetic interaction of peptides and USP25 was determined by surface plasmon resonance (SPR) analyses.

USP25 (as used for SPR) [2] = target: T2, USP25 (as used for SPR) (UniProt Q9UHP3 1-1055); assay: SPR
T2 chain: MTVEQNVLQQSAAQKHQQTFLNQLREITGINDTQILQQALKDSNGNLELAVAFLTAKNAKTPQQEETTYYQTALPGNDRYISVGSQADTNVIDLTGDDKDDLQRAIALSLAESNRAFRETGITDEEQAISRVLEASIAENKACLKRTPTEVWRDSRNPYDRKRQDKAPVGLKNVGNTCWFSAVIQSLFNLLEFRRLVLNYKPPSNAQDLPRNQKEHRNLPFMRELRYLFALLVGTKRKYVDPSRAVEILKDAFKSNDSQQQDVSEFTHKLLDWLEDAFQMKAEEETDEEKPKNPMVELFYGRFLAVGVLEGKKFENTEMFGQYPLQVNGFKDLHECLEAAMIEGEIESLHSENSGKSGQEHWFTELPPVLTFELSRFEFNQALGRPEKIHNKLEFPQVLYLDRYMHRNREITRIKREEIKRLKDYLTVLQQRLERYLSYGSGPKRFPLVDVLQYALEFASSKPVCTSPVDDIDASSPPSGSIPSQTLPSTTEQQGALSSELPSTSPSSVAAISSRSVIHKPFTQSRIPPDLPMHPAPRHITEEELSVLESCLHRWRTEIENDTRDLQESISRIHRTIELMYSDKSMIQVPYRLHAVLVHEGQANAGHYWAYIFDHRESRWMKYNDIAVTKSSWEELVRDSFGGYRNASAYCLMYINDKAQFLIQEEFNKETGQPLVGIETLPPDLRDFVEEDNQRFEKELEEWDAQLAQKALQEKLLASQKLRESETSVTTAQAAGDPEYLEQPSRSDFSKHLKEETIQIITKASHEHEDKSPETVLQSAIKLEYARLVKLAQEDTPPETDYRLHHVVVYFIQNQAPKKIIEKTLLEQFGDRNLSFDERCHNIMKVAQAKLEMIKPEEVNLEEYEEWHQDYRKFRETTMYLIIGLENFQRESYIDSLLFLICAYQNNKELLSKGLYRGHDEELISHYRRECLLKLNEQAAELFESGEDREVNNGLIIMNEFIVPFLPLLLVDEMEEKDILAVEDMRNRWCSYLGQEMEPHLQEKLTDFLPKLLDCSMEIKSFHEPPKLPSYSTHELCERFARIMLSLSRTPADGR

USP25 (as used for SPR) [3] = target: T2, USP25 (as used for SPR); assay: SPR

binding affinity for USP25 (USP25): showed the binding affinity for USP25
Molecule: EKQHKNLENYKVPESI [SH‐2, peptide designed based on the structure of the N‐terminus (aa 1–200) of SHLD2]

binding affinity for USP25 (USP25): showed the binding affinity for USP25
Molecule: FTEEEKYQKLLSENK [SH‐3, peptide designed based on the structure of the N‐terminus (aa 1–200) of SHLD2]

binding affinity for USP25 (USP25): showed the binding affinity for USP25
relative binding affinity for USP25 among SH-1 to SH-4 (USP25): higher affinity
Molecule: KNFNTNLFQLGHKCA [SH‐4, peptide designed based on the structure of the N‐terminus (aa 1–200) of SHLD2]

More lines, now with the values behind:

Molecule: OCCNCc1cc(Br)ccc1OCc1ccc(F)c(C(F)(F)F)c1 [AZ1]
NHEJ after USP25 inhibition (NHEJ): led to similar results as depletion of USP25 in cells
HR after USP25 inhibition (HR): led to similar results as depletion of USP25 in cells

Molecule: N.N.[Cl][Pt][Cl] [cisplatin]
sensitization by USP25 knockdown (RKO cells; Figure S2f-h): sensitized cells to IR, 5‐Fu, and cisplatin treatment
sensitization by USP25 knockdown in SHLD2-depleted cells (RKO cells; SHLD2 siRNA): didn't further lead cells to sensitize to these treatments
sensitization by USP25 knockdown, USP25-high cell lines (RKO and SW620 cells): sensitized the cells to IR, cisplatin, and 5‐Fu treatment

Molecule: COc1cc([C@@H]2c3cc4c(cc3[C@@H](O[C@@H]3O[C@@H]5CO[C@@H](C)O[C@H]5[C@H](O)[C@H]3O)[C@H]3COC(=O)[C@H]23)OCO4)cc(OC)c1O [etoposide]
RPA32 phosphorylation of Ser4/Ser8 on USP25 depletion [1]: promoted RPA32 phosphorylation of Ser4/Ser8

Molecule: MSVADPWKKIQLLYS [SH‐1, peptide designed based on the structure of the N‐terminus (aa 1–200) of SHLD2]
binding affinity for USP25 (USP25): showed the binding affinity for USP25
relative binding affinity for USP25 among SH-1 to SH-4 (USP25): higher affinity

B1: SH-4 peptide (peptide)
peptide: KNFNTNLFQLGHKCA
koff (USP25 (as used for SPR) [2]): 0.00484 s⁻¹
Kd (USP25 (as used for SPR) [3]): 20.8 µM
